# Measured values as given in US20050014696A1, “Additive cytoprotective effects of two bioactive regions of pro-opiomelanocortin hormone” (priority 2001, published 2005).
# Tested on: 96% ethanol induced gastric lesions
# Experiment: 96% ethanol induced gastric lesions cytoprotection model
# Type: in vivo, male Wistar rats
# Conditions: 8 animals, mean±standard deviation, saline control 255.5±78.1, p<0.05 compared to controls
# Procedure: Bioactive peptide fragments SYSMEHFRWGKPV and YGGFM were tested individually and in combination, by means of the standard cytoprotection model of the 96% ethanol induced gastric lesions in male Wistar rats (6, 7). In the control group of 8 animals treated with physiological saline the area of gastric lesions was 255.5±78.1 mm^2 (mean±standard deviation, FIG. 1) (7). In the group of 8 animals treated with the combination of peptides SYSMEHFRWGKPV (1 mg/kg) and YGGFM (10 mg/kg) the area of gastric lesions was 0.3±0.7 mm^2 (p<0.05 compared to controls, FIG. 1) (7). In the group of 8 animals treated with peptide SYSMEHFRWGKPV (1 mg/kg) the area of gastric lesions was 5.9±8 mm^2 (p<0.05 compared to controls, FIG. 1) (7). In the group of 8 animals treated with peptide YGGFM (10 mg/kg) the area of gastric lesions was 139.4±36.1 mm^2 (p<0.05 compared to controls, FIG. 1) (7). The combination of peptides SYSMEHFRWGKPV and YGGFM that provided best cytoprotective effect is patented under the name KOMET.
# FIG. 1 defines the cytoprotective effects of the bioactive peptide fragments SYSMEHFRWGKPV and YGGFM of the pro-opiomelanocortin molecule, and their combination KOMET, in the model of the ethanol induced gastric lesions in rats.
# FIG. 1. […]
substance,measurement,setting,value
SYSMEHFRWGKPV,area of gastric lesions,1 mg/kg,5.9±8 mm^2
YGGFM,area of gastric lesions,10 mg/kg,139.4±36.1 mm^2
